Earlier results, collected in patent US20090118352A1, “Broad spectrum microbicidal and spermicidal compositions and methods” (ESAWTECH, LTD., priority 2007, published 2009).

Columns and labels:
[1] = system: epithelial cells in the vagina
[2] = system: HIV; settings: phase III trial
[3] = system: HIV; settings: clinical trial in women, stopped 2007

Row | Substance | effect on epithelial cells in the vagina [1] | HIV transmission rate versus placebo ([2]; N-9 group) | efficacy in preventing HIV transmission ([2]; UN Joint Programme on HIV/AIDS, 2002) | HIV infections, active group versus placebo group [3]
1 | NONOXYL-9 [N-9] | can disrupt epithelial cells in the vagina | marginally higher | no efficacy | 
2 | cellulose sulfate |  |  |  | higher number of HIV infections in the active group compared with the placebo group
